Test results: publication PMC8885417, “Pharmacological targeting of MTHFD2 suppresses acute myeloid leukemia by inducing thymidine depletion and replication stress” (Nature Cancer, 2022)
One block for each compound: values may come before it.

Key:
Adenosine A2A = biological target: T1, Adenosine A2A (Homo sapiens, UniProt P29274); experiment: biochemical; parameters: Eurofins SafetyScreen44 panel of binding and enzyme assays, mean per cent inhibition of duplicate; conditions: read-out: Inhibition (%) at 10 µM TH9619
T1 construct: gene ADORA2A
Text: (§1) Bars represent the mean change in protein melting temperature (ΔTm) of one experiment performed in triplicate. […] Bars represent mean inhibition in percentage of one experiment performed in duplicate.

Adrenergic ß1 = biological target: T2, Adrenergic ß1 (Homo sapiens, UniProt P08588); experiment: biochemical; parameters: Eurofins SafetyScreen44 panel of binding and enzyme assays, mean per cent inhibition of duplicate; conditions: read-out: Inhibition (%) at 10 µM TH9619
T2 construct: gene ADRB1
Text: as §1

Adrenergic ß2 = biological target: T3, Adrenergic ß2 (Homo sapiens, UniProt P07550); experiment: biochemical; parameters: Eurofins SafetyScreen44 panel of binding and enzyme assays, mean per cent inhibition of duplicate; conditions: read-out: Inhibition (%) at 10 µM TH9619
T3 construct: gene ADRB2
Text: as §1

Adrenergic α1A = biological target: T4, Adrenergic α1A (Homo sapiens, UniProt P35348); experiment: biochemical; parameters: Eurofins SafetyScreen44 panel of binding and enzyme assays, mean per cent inhibition of duplicate; conditions: read-out: Inhibition (%) at 10 µM TH9619
T4 construct: gene ADRA1A
Text: as §1

Adrenergic α2A = biological target: T5, Adrenergic α2A (Homo sapiens, UniProt P08913); experiment: biochemical; parameters: Eurofins SafetyScreen44 panel of binding and enzyme assays, mean per cent inhibition of duplicate; conditions: read-out: Inhibition (%) at 10 µM TH9619
T5 construct: gene ADRA2A
Text: as §1

Androgen (Testosterone) = biological target: T6, Androgen (Testosterone) (Homo sapiens, UniProt P10275); experiment: biochemical; parameters: Eurofins SafetyScreen44 panel of binding and enzyme assays, mean per cent inhibition of duplicate; conditions: read-out: Inhibition (%) at 10 µM TH9619
T6 construct: gene AR
Text: as §1

Cannabinoid CB1 = biological target: T7, Cannabinoid CB1 (Homo sapiens, UniProt P21554); experiment: biochemical; parameters: Eurofins SafetyScreen44 panel of binding and enzyme assays, mean per cent inhibition of duplicate; conditions: read-out: Inhibition (%) at 10 µM TH9619
T7 construct: gene CNR1
Text: as §1

Cannabinoid CB2 = biological target: T8, Cannabinoid CB2 (Homo sapiens, UniProt P34972); experiment: biochemical; parameters: Eurofins SafetyScreen44 panel of binding and enzyme assays, mean per cent inhibition of duplicate; conditions: read-out: Inhibition (%) at 10 µM TH9619
T8 construct: gene CNR2
Text: as §1

[1] = biological target: T9, Cholecystokinin CCK1 (CCKA) (Homo sapiens, UniProt P32238); experiment: biochemical; parameters: Eurofins SafetyScreen44 panel of binding and enzyme assays, mean per cent inhibition of duplicate; conditions: read-out: Inhibition (%) at 10 µM TH9619
T9 construct: gene CCKAR
Text: as §1

[2] = biological target: T10, Cholinesterase,Acetyl, ACES (Homo sapiens, UniProt P22303); experiment: biochemical; parameters: Eurofins SafetyScreen44 panel of binding and enzyme assays, mean per cent inhibition of duplicate; conditions: read-out: Inhibition (%) at 10 µM TH9619
T10 construct: gene ACHE
Text: as §1

Cyclooxygenase COX-1 = biological target: T11, Cyclooxygenase COX-1 (Homo sapiens, UniProt P23219); experiment: biochemical; parameters: Eurofins SafetyScreen44 panel of binding and enzyme assays, mean per cent inhibition of duplicate; conditions: read-out: Inhibition (%) at 10 µM TH9619
T11 construct: gene PTGS1
Text: as §1

Cyclooxygenase COX-2 = biological target: T12, Cyclooxygenase COX-2 (Homo sapiens, UniProt P35354); experiment: biochemical; parameters: Eurofins SafetyScreen44 panel of binding and enzyme assays, mean per cent inhibition of duplicate; conditions: read-out: Inhibition (%) at 10 µM TH9619
T12 construct: gene PTGS2
Text: as §1

Dopamine D1 = biological target: T13, Dopamine D1 (Homo sapiens, UniProt P21728); experiment: biochemical; parameters: Eurofins SafetyScreen44 panel of binding and enzyme assays, mean per cent inhibition of duplicate; conditions: read-out: Inhibition (%) at 10 µM TH9619
T13 construct: gene DRD1
Text: as §1

Dopamine D2S = biological target: T14, Dopamine D2S (Homo sapiens, UniProt P14416); experiment: biochemical; parameters: Eurofins SafetyScreen44 panel of binding and enzyme assays, mean per cent inhibition of duplicate; conditions: read-out: Inhibition (%) at 10 µM TH9619
T14 construct: gene DRD2; isoform D2S (short)
Text: as §1

Endothelin ETA = biological target: T15, Endothelin ETA (Homo sapiens, UniProt P25101); experiment: biochemical; parameters: Eurofins SafetyScreen44 panel of binding and enzyme assays, mean per cent inhibition of duplicate; conditions: read-out: Inhibition (%) at 10 µM TH9619
T15 construct: gene EDNRA
Text: as §1

Glucocorticoid = biological target: T16, Glucocorticoid (Homo sapiens, UniProt P04150); experiment: biochemical; parameters: Eurofins SafetyScreen44 panel of binding and enzyme assays, mean per cent inhibition of duplicate; conditions: read-out: Inhibition (%) at 10 µM TH9619
T16 construct: gene NR3C1
Text: as §1

Histamine H1 = biological target: T17, Histamine H1 (Homo sapiens, UniProt P35367); experiment: biochemical; parameters: Eurofins SafetyScreen44 panel of binding and enzyme assays, mean per cent inhibition of duplicate; conditions: read-out: Inhibition (%) at 10 µM TH9619
T17 construct: gene HRH1
Text: as §1

Histamine H2 = biological target: T18, Histamine H2 (Homo sapiens, UniProt P25021); experiment: biochemical; parameters: Eurofins SafetyScreen44 panel of binding and enzyme assays, mean per cent inhibition of duplicate; conditions: read-out: Inhibition (%) at 10 µM TH9619
T18 construct: gene HRH2
Text: as §1

Monoamine Oxidase MAO-A = biological target: T19, Monoamine Oxidase MAO-A (Homo sapiens, UniProt P21397); experiment: biochemical; parameters: Eurofins SafetyScreen44 panel of binding and enzyme assays, mean per cent inhibition of duplicate; conditions: read-out: Inhibition (%) at 10 µM TH9619
T19 construct: gene MAOA
Text: as §1

Muscarinic M1 = biological target: T20, Muscarinic M1 (Homo sapiens, UniProt P11229); experiment: biochemical; parameters: Eurofins SafetyScreen44 panel of binding and enzyme assays, mean per cent inhibition of duplicate; conditions: read-out: Inhibition (%) at 10 µM TH9619
T20 construct: gene CHRM1
Text: as §1

Muscarinic M2 = biological target: T21, Muscarinic M2 (Homo sapiens, UniProt P08172); experiment: biochemical; parameters: Eurofins SafetyScreen44 panel of binding and enzyme assays, mean per cent inhibition of duplicate; conditions: read-out: Inhibition (%) at 10 µM TH9619
T21 construct: gene CHRM2
Text: as §1

Muscarinic M3 = biological target: T22, Muscarinic M3 (Homo sapiens, UniProt P20309); experiment: biochemical; parameters: Eurofins SafetyScreen44 panel of binding and enzyme assays, mean per cent inhibition of duplicate; conditions: read-out: Inhibition (%) at 10 µM TH9619
T22 construct: gene CHRM3
Text: as §1

[3] = biological target: T23, Nicotinic Acetylcholine a4ß2, Cytisine (Homo sapiens, UniProt P17787+P43681); experiment: biochemical; parameters: Eurofins SafetyScreen44 panel of binding and enzyme assays, mean per cent inhibition of duplicate; conditions: read-out: Inhibition (%) at 10 µM TH9619
T23 construct: gene CHRNB2; cytisine site
Text: as §1

Opiate µ (OP3, MOP) = biological target: T24, Opiate µ (OP3, MOP) (Homo sapiens, UniProt P35372); experiment: biochemical; parameters: Eurofins SafetyScreen44 panel of binding and enzyme assays, mean per cent inhibition of duplicate; conditions: read-out: Inhibition (%) at 10 µM TH9619
T24 construct: gene OPRM1
Text: as §1

Opiate κ (OP2, KOP) = biological target: T25, Opiate κ (OP2, KOP) (Homo sapiens, UniProt P41145); experiment: biochemical; parameters: Eurofins SafetyScreen44 panel of binding and enzyme assays, mean per cent inhibition of duplicate; conditions: read-out: Inhibition (%) at 10 µM TH9619
T25 construct: gene OPRK1
Text: as §1

Phosphodiesterase PDE3A = Phosphodiesterase PDE3A (Homo sapiens, UniProt Q14432); experiment: biochemical; parameters: Eurofins SafetyScreen44 panel of binding and enzyme assays, mean per cent inhibition of duplicate; conditions: read-out: Inhibition (%) at 10 µM TH9619
Text: as §1

Phosphodiesterase PDE4D2 = biological target: T26, Phosphodiesterase PDE4D2 (Homo sapiens, UniProt Q08499); experiment: biochemical; parameters: Eurofins SafetyScreen44 panel of binding and enzyme assays, mean per cent inhibition of duplicate; conditions: read-out: Inhibition (%) at 10 µM TH9619
T26 construct: gene PDE4D; isoform PDE4D2
Text: as §1

[4] = biological target: T27, Potassium Channel hERG, [3H]Dofetilide (Homo sapiens, UniProt Q12809); experiment: in vitro; parameters: Eurofins SafetyScreen44 panel of binding and enzyme assays, mean per cent inhibition of duplicate
T27 construct: gene KCNH2; dofetilide site
Text: as §1

[5] = biological target: Protein Tyrosine Kinase, LCK (Homo sapiens, UniProt P06239); experiment: biochemical; parameters: Eurofins SafetyScreen44 panel of binding and enzyme assays, mean per cent inhibition of duplicate; conditions: read-out: Inhibition (%) at 10 µM TH9619
Text: as §1

[6] = biological target: T28, Serotonin (5-Hydroxytryptamine) 5-HT1A (Homo sapiens, UniProt P08908); experiment: biochemical; parameters: Eurofins SafetyScreen44 panel of binding and enzyme assays, mean per cent inhibition of duplicate; conditions: read-out: Inhibition (%) at 10 µM TH9619
T28 construct: gene HTR1A
Text: as §1

[7] = biological target: T29, Serotonin (5-Hydroxytryptamine) 5-HT1B (Homo sapiens, UniProt P28222); experiment: biochemical; parameters: Eurofins SafetyScreen44 panel of binding and enzyme assays, mean per cent inhibition of duplicate; conditions: read-out: Inhibition (%) at 10 µM TH9619
T29 construct: gene HTR1B
Text: as §1

[8] = biological target: T30, Serotonin (5-Hydroxytryptamine) 5-HT2B (Homo sapiens, UniProt P41595); experiment: biochemical; parameters: Eurofins SafetyScreen44 panel of binding and enzyme assays, mean per cent inhibition of duplicate; conditions: read-out: Inhibition (%) at 10 µM TH9619
T30 construct: gene HTR2B
Text: as §1

[9] = biological target: T31, Serotonin (5-Hydroxytryptamine) 5-HT3 (Homo sapiens, UniProt P46098); experiment: biochemical; parameters: Eurofins SafetyScreen44 panel of binding and enzyme assays, mean per cent inhibition of duplicate; conditions: read-out: Inhibition (%) at 10 µM TH9619
T31 construct: gene HTR3A
Text: as §1

[10] = biological target: T32, Transporter, Dopamine (DAT) (Homo sapiens, UniProt Q01959); experiment: biochemical; parameters: Eurofins SafetyScreen44 panel of binding and enzyme assays, mean per cent inhibition of duplicate; conditions: read-out: Inhibition (%) at 10 µM TH9619
T32 construct: gene SLC6A3
Text: as §1

[11] = biological target: T33, Transporter, Norepinephrine (NET) (Homo sapiens, UniProt P23975); experiment: biochemical; parameters: Eurofins SafetyScreen44 panel of binding and enzyme assays, mean per cent inhibition of duplicate; conditions: read-out: Inhibition (%) at 10 µM TH9619
T33 construct: gene SLC6A2
Text: as §1

[12] = biological target: T34, Transporter, Serotonin (5-Hydroxytryptamine) (SERT) (Homo sapiens, UniProt P31645); experiment: biochemical; parameters: Eurofins SafetyScreen44 panel of binding and enzyme assays, mean per cent inhibition of duplicate; conditions: read-out: Inhibition (%) at 10 µM TH9619
T34 construct: gene SLC6A4
Text: as §1

Vasopressin V1A = biological target: T35, Vasopressin V1A (Homo sapiens, UniProt P37288); experiment: biochemical; parameters: Eurofins SafetyScreen44 panel of binding and enzyme assays, mean per cent inhibition of duplicate; conditions: read-out: Inhibition (%) at 10 µM TH9619
T35 construct: gene AVPR1A
Text: as §1

MTHFD2L = MTHFD2L (Homo sapiens, UniProt Q9H903); experiment: biochemical activity assay; conditions: read-out: MTHFD2L IC50
MTHFD1-(DC) = biological target: T36, MTHFD1-(DC) (Homo sapiens, UniProt P11586); experiment: biochemical activity assay
T36 construct: dehydrogenase/cyclohydrolase (DC) domain

MTHFD2 = MTHFD2 (Homo sapiens, UniProt P13995); experiment: cocrystal structure with NAD+; enzymatic IC50; CETSA; format: biochemical

T32 sequence (Q01959 whole entry): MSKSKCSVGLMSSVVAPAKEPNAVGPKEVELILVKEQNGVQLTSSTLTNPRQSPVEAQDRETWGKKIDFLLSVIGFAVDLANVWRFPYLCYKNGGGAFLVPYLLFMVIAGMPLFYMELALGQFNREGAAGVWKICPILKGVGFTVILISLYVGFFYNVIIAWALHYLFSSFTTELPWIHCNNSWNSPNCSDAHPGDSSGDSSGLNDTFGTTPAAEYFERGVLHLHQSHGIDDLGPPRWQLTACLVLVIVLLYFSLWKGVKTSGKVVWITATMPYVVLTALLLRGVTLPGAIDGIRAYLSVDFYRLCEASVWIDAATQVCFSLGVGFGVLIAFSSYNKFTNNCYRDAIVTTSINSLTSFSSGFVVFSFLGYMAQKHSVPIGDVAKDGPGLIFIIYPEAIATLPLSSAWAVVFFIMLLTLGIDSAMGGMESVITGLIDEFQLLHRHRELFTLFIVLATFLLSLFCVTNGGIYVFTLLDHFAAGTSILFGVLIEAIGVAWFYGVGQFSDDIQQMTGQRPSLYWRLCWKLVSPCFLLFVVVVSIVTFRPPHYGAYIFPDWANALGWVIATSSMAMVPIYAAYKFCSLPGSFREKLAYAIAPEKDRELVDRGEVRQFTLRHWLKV
T24 sequence (P35372 whole entry): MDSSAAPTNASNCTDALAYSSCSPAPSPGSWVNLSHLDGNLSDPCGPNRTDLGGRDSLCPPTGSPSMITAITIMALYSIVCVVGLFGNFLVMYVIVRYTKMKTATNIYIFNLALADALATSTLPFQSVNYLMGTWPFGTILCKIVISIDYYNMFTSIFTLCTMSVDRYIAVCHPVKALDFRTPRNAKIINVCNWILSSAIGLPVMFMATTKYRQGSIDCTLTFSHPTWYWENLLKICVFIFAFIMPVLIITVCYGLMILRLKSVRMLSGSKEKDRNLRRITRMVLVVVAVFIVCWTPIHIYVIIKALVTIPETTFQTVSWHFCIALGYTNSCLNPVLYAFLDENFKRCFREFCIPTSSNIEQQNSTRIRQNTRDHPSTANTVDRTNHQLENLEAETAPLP
T1 sequence (P29274 whole entry): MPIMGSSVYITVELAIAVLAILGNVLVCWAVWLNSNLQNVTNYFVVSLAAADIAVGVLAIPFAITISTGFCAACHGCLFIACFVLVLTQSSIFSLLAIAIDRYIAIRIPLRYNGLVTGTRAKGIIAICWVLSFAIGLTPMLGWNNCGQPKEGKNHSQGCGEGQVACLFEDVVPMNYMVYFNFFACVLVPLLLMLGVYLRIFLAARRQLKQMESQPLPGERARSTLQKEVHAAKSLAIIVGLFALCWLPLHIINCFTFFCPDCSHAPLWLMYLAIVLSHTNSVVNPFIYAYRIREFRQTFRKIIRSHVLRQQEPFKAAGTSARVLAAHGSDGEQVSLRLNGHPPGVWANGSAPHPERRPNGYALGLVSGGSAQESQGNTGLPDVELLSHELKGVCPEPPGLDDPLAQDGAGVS
T11 sequence (P23219 whole entry): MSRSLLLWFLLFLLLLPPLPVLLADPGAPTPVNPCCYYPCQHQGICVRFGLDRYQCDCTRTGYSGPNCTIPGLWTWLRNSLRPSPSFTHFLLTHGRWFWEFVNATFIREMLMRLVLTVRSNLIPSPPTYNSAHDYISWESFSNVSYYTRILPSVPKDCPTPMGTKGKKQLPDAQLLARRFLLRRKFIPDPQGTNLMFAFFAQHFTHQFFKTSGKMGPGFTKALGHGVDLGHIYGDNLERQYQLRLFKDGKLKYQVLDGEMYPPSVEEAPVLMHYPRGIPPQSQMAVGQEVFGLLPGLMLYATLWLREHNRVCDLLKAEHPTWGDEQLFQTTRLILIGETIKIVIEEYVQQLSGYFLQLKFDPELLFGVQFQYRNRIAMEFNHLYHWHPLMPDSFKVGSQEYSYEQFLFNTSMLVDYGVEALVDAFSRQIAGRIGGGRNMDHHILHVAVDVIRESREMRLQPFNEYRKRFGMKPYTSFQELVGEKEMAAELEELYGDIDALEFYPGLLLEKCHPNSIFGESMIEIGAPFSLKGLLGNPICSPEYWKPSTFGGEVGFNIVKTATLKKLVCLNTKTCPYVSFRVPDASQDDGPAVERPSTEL
T35 sequence (P37288 whole entry): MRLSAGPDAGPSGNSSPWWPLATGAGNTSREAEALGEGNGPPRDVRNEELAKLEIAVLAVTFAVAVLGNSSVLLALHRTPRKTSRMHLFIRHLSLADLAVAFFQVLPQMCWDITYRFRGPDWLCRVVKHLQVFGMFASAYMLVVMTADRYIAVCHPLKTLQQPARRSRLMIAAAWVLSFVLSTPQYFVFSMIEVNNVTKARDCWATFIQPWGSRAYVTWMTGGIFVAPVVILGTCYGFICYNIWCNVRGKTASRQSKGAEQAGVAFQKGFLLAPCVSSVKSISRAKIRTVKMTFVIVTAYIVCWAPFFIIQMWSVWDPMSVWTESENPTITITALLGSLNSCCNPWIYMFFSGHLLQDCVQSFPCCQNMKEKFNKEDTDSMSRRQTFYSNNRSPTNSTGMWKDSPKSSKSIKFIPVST
T4 sequence (P35348 whole entry): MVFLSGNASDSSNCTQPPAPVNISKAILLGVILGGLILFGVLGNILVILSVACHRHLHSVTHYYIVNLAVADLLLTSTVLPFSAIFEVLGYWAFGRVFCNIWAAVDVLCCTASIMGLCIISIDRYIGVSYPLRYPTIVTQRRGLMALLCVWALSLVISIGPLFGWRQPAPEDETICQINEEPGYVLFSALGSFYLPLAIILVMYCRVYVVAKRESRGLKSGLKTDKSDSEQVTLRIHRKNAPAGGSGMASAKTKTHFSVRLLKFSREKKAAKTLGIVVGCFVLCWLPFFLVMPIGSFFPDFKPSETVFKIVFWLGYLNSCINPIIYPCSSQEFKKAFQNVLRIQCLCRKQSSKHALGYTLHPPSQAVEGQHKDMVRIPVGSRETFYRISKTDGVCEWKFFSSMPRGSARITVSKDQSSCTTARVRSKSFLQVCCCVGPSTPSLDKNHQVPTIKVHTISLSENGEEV
T12 sequence (P35354 whole entry): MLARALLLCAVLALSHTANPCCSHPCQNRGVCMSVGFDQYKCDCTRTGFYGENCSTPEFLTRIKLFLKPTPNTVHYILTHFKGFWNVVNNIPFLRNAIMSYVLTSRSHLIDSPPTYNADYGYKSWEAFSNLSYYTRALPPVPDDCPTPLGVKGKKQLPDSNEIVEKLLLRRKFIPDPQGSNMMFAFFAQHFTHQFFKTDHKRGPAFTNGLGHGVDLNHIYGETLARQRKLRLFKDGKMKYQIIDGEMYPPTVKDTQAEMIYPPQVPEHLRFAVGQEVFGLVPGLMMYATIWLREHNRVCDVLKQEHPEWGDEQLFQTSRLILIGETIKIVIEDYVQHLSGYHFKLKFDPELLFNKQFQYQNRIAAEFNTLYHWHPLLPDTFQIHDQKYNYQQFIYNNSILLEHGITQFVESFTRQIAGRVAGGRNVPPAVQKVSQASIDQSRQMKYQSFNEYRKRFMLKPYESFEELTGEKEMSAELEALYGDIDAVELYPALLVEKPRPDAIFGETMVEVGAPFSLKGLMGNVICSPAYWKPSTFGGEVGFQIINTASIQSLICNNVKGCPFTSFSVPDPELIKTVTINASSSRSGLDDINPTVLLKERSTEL
T18 sequence (P25021 whole entry): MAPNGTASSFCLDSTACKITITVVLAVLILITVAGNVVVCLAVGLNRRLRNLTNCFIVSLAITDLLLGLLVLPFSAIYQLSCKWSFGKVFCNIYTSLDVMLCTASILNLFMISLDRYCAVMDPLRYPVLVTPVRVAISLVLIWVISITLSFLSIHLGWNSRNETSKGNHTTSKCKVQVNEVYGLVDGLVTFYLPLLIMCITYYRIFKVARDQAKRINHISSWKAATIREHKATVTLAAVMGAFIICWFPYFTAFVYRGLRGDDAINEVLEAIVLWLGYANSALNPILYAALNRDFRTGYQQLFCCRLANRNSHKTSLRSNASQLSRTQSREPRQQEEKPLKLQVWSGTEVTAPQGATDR
T6 sequence (P10275 whole entry): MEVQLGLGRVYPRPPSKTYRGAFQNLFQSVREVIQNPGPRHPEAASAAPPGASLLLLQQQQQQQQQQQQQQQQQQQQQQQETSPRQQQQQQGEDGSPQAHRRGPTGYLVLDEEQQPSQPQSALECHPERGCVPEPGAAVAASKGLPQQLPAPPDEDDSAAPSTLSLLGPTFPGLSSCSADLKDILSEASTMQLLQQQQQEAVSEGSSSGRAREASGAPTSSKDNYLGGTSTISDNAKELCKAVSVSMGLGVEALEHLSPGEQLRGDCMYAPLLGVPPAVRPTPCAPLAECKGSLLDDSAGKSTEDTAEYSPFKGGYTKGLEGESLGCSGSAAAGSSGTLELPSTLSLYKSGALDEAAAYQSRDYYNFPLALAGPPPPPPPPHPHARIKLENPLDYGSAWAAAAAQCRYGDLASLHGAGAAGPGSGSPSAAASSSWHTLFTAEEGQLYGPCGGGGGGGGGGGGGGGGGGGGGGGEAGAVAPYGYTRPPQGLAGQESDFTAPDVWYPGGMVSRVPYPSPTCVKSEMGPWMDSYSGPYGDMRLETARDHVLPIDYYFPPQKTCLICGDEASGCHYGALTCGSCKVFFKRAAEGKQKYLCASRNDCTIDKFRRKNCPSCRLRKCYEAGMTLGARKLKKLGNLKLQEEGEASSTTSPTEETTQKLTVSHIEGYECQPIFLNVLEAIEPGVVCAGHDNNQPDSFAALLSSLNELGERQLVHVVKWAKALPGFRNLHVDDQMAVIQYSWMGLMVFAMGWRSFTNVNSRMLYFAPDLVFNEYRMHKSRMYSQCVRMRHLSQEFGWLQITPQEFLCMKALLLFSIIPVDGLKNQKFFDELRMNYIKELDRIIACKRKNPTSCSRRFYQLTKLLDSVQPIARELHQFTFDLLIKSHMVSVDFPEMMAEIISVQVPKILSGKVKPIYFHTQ

Compound: Nc1nc(N)c(CC(=O)Nc2cnc(C(=O)N[C@@H](CCC(=O)O)C(=O)O)c(F)c2)c(=O)[nH]1 [TH9619]
- inhibition at 10 µM (Adenosine A2A): 11%
- inhibition at 10 µM (Adrenergic ß1): 0%
- inhibition at 10 µM (Adrenergic ß2): 1%
- inhibition at 10 µM (Adrenergic α1A): 9%
- inhibition at 10 µM (Adrenergic α2A): 9%
- inhibition at 10 µM (Androgen (Testosterone)): 3%
- inhibition at 10 µM (Cannabinoid CB1): 0%
- inhibition at 10 µM (Cannabinoid CB2): -3%
- inhibition at 10 µM [1]: 7%
- inhibition at 10 µM [2]: 21%
- inhibition at 10 µM (Cyclooxygenase COX-1): 9%
- inhibition at 10 µM (Cyclooxygenase COX-2): 16%
- inhibition at 10 µM (Dopamine D1): 5%
- inhibition at 10 µM (Dopamine D2S): 1%
- inhibition at 10 µM (Endothelin ETA): -7%
- inhibition at 10 µM (Glucocorticoid): 3%
- inhibition at 10 µM (Histamine H1): 7%
- inhibition at 10 µM (Histamine H2): -6%
- inhibition at 10 µM (Monoamine Oxidase MAO-A): 6%
- inhibition at 10 µM (Muscarinic M1): -7%
- inhibition at 10 µM (Muscarinic M2): -29%
- inhibition at 10 µM (Muscarinic M3): -2%
- inhibition at 10 µM [3]: 2%
- inhibition at 10 µM (Opiate µ (OP3, MOP)): -10%
- inhibition at 10 µM (Opiate κ (OP2, KOP)): 5%
- inhibition at 10 µM (Phosphodiesterase PDE3A): -3%
- inhibition at 10 µM (Phosphodiesterase PDE4D2): -1%
- inhibition at 10 µM [4]: 5%
- inhibition at 10 µM [5]: 1%
- inhibition at 10 µM [6]: 0%
- inhibition at 10 µM [7]: -8%
- inhibition at 10 µM [8]: 1%
- inhibition at 10 µM [9]: -4%
- inhibition at 10 µM [10]: -7%
- inhibition at 10 µM [11]: -12%
- inhibition at 10 µM [12]: 5%
- inhibition at 10 µM (Vasopressin V1A): -15%

- IC50 (MTHFD2L): 27 nM
- IC50 (MTHFD1-(DC)): 0.5 nM
- IC50 (MTHFD2): 11 nM
Compound: TH9028
